Patent US20200331904A1, “3-AMINO-[1,2,4]-TRIAZOLE DERIVATIVES AND THEIR USE FOR CONTROLLING UNDESIRED PLANT GROWTH” (Bayer CropScience Aktiengesellschaft, priority 2017, published 2020)

Experiments:
Type in all cases: in vivo
Echinochloa crus-galli [1] = assay: Pre-emergence herbicidal efficacy, ECHCG; conditions: Table B1, application rate 320 g/ha, scored visually after about 3 weeks vs untreated controls
Procedure, shortened: (§1)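 Visual percent activity relative to untreated plants (0% = like control, 100% = dead), scored about 3 weeks after treatment under greenhouse conditions.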

Lolium rigidum [2] = assay: Pre-emergence herbicidal efficacy, LOLRI; conditions: Table B1, application rate 320 g/ha, scored visually after about 3 weeks vs untreated controls
Procedure, shortened: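 Seeds sown in pots and covered with soil. Greenhouse-grown about 3 weeks, then visually scored as % activity vs untreated controls (100% = dead, 0% = like control).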

Setaria viridis [3] = assay: Pre-emergence herbicidal efficacy, SETVI; conditions: Table B1, application rate 320 g/ha, scored visually after about 3 weeks vs untreated controls
Procedure, shortened: as §1

Abutilon theophrasti [4] = assay: Pre-emergence herbicidal efficacy, ABUTH; conditions: Table B1, application rate 320 g/ha, scored visually after about 3 weeks vs untreated controls
Procedure, shortened: as §1

Amaranthus retroflexus [5] = assay: Pre-emergence herbicidal efficacy, AMARE; conditions: Table B1, application rate 320 g/ha, scored visually after about 3 weeks vs untreated controls
Procedure, shortened: as §1

Matricaria inodora = assay: Pre-emergence herbicidal efficacy, MATIN; conditions: Table B1, application rate 320 g/ha, scored visually after about 3 weeks vs untreated controls
Procedure, shortened: as §1

Polygonum convolvulus = assay: Pre-emergence herbicidal efficacy, POLCO; conditions: Table B1, application rate 320 g/ha, scored visually after about 3 weeks vs untreated controls
Procedure, shortened: as §1

Stellaria media [6] = assay: Pre-emergence herbicidal efficacy, STEME; conditions: Table B1, application rate 320 g/ha, scored visually after about 3 weeks vs untreated controls
Procedure, shortened: as §1

Viola tricolor [7] = assay: Pre-emergence herbicidal efficacy, VIOTR; conditions: Table B1, application rate 320 g/ha, scored visually after about 3 weeks vs untreated controls
Procedure, shortened: as §1

Veronica persica [8] = assay: Pre-emergence herbicidal efficacy, VERPE; conditions: Table B1, application rate 320 g/ha, scored visually after about 3 weeks vs untreated controls
Procedure, shortened: as §1

Echinochloa crus-galli [9] = assay: Post-emergence herbicidal efficacy, ECHCG; conditions: application rate 320 g/ha, rated visually after about 3 weeks
From the text: (§2) ABUTH: Abutilon theophrasti ALOMY: Alopecurus myosuroides AMARE: Amaranthus retroflexus AVEFA: Avena fatua CYPES: Cyperus esculentus ECHCG: Echinochloa crus-galli LOLMU: Lolium multiflorum MATIN: Matricaria inodora PHBPU: Ipomoea purpurea POLCO: Polygonum convolvulus SETVI: Setaria viridis STEME: Stellaria media VERPE: Veronica persica VTOTR: Viola tricolor
(§3) C.2 Post-Emergence Herbicidal Action and Crop Plant Compatibility
(§4) Seeds of monocotyledonous and dicotyledonous weeds and crop plants are placed in sandy loam in plastic or organic planting pots, covered with soil and cultivated in a greenhouse under controlled growth conditions. 2 to 3 weeks after sowing, the test plants are treated at the one-leaf stage. The compounds of the invention, formulated in the form of wettable powders (WP) or as emulsion concentrates (EC), are then sprayed onto the green parts of the plants as aqueous suspension or emulsion with addition of 0.5% additive at a water application rate of […] (converted). After the test plants had been kept in the greenhouse under optimum growth conditions for about 3 weeks, the activity of the preparations is rated visually in comparison to untreated controls. For example, 100% activity=the plants have died, 0% activity=like control plants.

Lolium rigidum [10] = assay: Post-emergence herbicidal efficacy, LOLRI; conditions: application rate 320 g/ha, rated visually after about 3 weeks
Procedure: as §3, §4

Amaranthus retroflexus [11] = assay: Post-emergence herbicidal efficacy, AMARE; conditions: application rate 320 g/ha
From the text: as §2, §3, §4

Stellaria media [12] = assay: Post-emergence herbicidal efficacy, STEME; conditions: application rate 320 g/ha, rated visually after about 3 weeks
From the text: as §2, §3, §4

Viola tricolor [13] = assay: Post-emergence herbicidal efficacy, VIOTR; conditions: application rate 320 g/ha, rated visually after about 3 weeks (Table B5)
From the text: as §2, §3, §4

Veronica persica [14] = assay: Post-emergence herbicidal efficacy, VERPE; conditions: application rate 320 g/ha
From the text: as §2, §3, §4

harmful plants = assay: Post-emergence herbicidal action; conditions: applied post-emergence
Procedure: as §3, §4

Setaria viridis [15] = assay: Post-emergence herbicidal efficacy, SETVI; conditions: Table B6, one-leaf stage, application rate 320 g/ha, rated visually after about 3 weeks vs untreated controls
From the text: as §2, §3, §4

Abutilon theophrasti [16] = assay: Post-emergence herbicidal efficacy, ABUTH; conditions: Table B6, one-leaf stage, application rate 320 g/ha, rated visually after about 3 weeks vs untreated controls
From the text: as §2, §3, §4

[17] = rated visually after about 3 weeks
[18] = rated visually after about 3 weeks (Table B5)
[19] = Table B6, one-leaf stage, rated visually after about 3 weeks vs untreated controls

SMILES | Herbicidal efficacy against ECHCG (Echinochloa crus-galli [1]) [%] | Herbicidal efficacy against LOLRI (Lolium rigidum [2]) [%] | Herbicidal efficacy against SETVI (Setaria viridis [3]) [%] | Herbicidal efficacy against ABUTH (Abutilon theophrasti [4]) [%] | Herbicidal efficacy against AMARE (Amaranthus retroflexus [5]) [%] | Herbicidal efficacy against MATIN (Matricaria inodora) [%] | Herbicidal efficacy against POLCO (Polygonum convolvulus) [%] | Herbicidal efficacy against STEME (Stellaria media [6]) [%] | Herbicidal efficacy against VIOTR (Viola tricolor [7]) [%] | Herbicidal efficacy against VERPE (Veronica persica [8]) [%] | Herbicidal efficacy against ECHCG (Echinochloa crus-galli [9]) [%] | Herbicidal efficacy against LOLRI (Lolium rigidum [10]) [%] | Herbicidal efficacy against AMARE (Amaranthus retroflexus [11]; [17]) [%] | Herbicidal efficacy against STEME (Stellaria media [12]) [%] | Herbicidal efficacy against VIOTR (Viola tricolor [13]) [%] | Herbicidal efficacy against VERPE (Veronica persica [14]; [18]) [%] | Herbicidal efficacy against SETVI (Setaria viridis [15]) [%] | Herbicidal efficacy against ABUTH (Abutilon theophrasti [16]) [%] | Herbicidal efficacy against AMARE (Amaranthus retroflexus [11]; [19]) [%] | Herbicidal efficacy against VERPE (Veronica persica [14]; [19]) [%] | also measured
Cc1ccc2c(c1)C(Nc1nc3n(n1)CCCCS3)CC2 (centres unmarked) [Example I-248] | 100 | 100 | 100 | 100 | 100 | 100 | 100 | 100 | 100 | 100 | 100 | 100 | 90 | 100 | 90 | 90 | – | – | – | – | herbicidal efficacy against harmful plants (harmful plants): very good herbicidal efficacy
Cc1ccc2c(c1)[C@H](Nc1nc3n(n1)CCCCS3)CCO2 [Example I-377] | 100 | 100 | 100 | 100 | 100 | 100 | 100 | 100 | 100 | 100 | – | – | – | – | – | – | 90 | 80 | 80 | 90 | –
Cc1ccc2c(c1)C(Nc1nc3n(n1)CCCCS3(=O)=O)CC2 (centres unmarked) [Example I-232] | 100 | 100 | 100 | 100 | 100 | 100 | 100 | 100 | 100 | 100 | 80 | 90 | 100 | 100 | 90 | 90 | – | – | – | – | –
Cc1ccc2c(c1)C(Nc1nc3n(n1)CCCCS3)C(C)C2 (centres unmarked) [Example I-354] | 100 | 100 | 100 | 100 | 100 | 100 | 100 | 100 | 100 | 100 | 100 | 100 | 80 | 100 | 80 | 100 | – | – | – | – | –
CC(=O)N1CCn2nc(N[C@@H]3CCCc4ccc(C)cc43)nc2C1 [Example I-180] | 100 | 100 | 100 | 100 | 100 | 100 | 100 | 100 | 100 | 100 | – | – | – | – | – | – | 80 | 80 | 80 | 80 | –
Cc1ccc2c(c1)C(Nc1nc3n(n1)CCCCS3(=O)=O)C(C)C2 (centres unmarked) [Example I-366] | 100 | 100 | 100 | 100 | 100 | 100 | 100 | 100 | 100 | 100 | 100 | 90 | 80 | 90 | – | – | – | – | – | – | –
Cc1ccc2c(c1)[C@H](Nc1nc3n(n1)CCCCS3)CC2 [Example I-353] | 100 | 100 | 100 | 100 | 100 | 100 | 100 | 100 | 100 | 100 | 100 | 100 | 90 | 100 | 80 | 90 | – | – | – | – | herbicidal efficacy against harmful plants (harmful plants): very good herbicidal efficacy
Cc1ccc2c(c1)C(Nc1nc3n(n1)CCCCS3)CCC2 (centres unmarked) [Example I-214] | 100 | 100 | 100 | 100 | 100 | 100 | 100 | 100 | 100 | 100 | – | – | – | – | – | – | 100 | 80 | 80 | 100 | –
